Laboratory results taken from patent publication EP4603105A1, “PHARMACEUTICAL COMPOSITION CONTAINING CYCLIC COMPOUND HAVING SELECTIVE KRAS INHIBITORY EFFECT AGAINST HRAS AND NRAS” (CHUGAI SEIYAKU KABUSHIKI KAISHA, priority 2022, dated 2024).
Blank lines part the entries; values can stand above or below the compound they belong to.

Experiments:
[1] = target: GDP-bound NRAS wild-type protein (Homo sapiens, UniProt P01111); assay: Binding to NRAS by surface plasmon resonance (SPR), KD and KD ratio to KRAS; conditions: ratio of the KD value with respect to GDP-bound NRAS wild-type protein to the KD value with respect to KRAS
GDP-bound NRAS wild-type protein, sequence (P01111 whole entry): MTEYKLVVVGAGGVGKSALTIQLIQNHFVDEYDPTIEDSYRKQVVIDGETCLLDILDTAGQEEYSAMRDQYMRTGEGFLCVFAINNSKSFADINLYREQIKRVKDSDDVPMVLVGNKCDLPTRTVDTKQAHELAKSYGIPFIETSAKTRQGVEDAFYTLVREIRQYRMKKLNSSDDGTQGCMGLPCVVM
Summary of the method: (§1)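 Each cycle, GDP-bound biotin-Avi RAS was captured (~100–300 RU), compound concentrations were injected low to high for 75 s each at 100 µL/min, then the chip was regenerated. Buffer: HBS pH 7.4, 10 mM MgCl2, 10 µM GDP, 1 mM DTT, 4% DMSO; 30°C. KD from a 1:1 binding model.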

[2] = target: HRAS wild-type protein (Homo sapiens, UniProt P01112); assay: Binding to HRAS by surface plasmon resonance (SPR), KD and KD ratio to KRAS; conditions: ratio of the KD value with respect to HRAS wild-type protein to the KD value with respect to KRAS
HRAS wild-type protein, sequence (P01112 whole entry): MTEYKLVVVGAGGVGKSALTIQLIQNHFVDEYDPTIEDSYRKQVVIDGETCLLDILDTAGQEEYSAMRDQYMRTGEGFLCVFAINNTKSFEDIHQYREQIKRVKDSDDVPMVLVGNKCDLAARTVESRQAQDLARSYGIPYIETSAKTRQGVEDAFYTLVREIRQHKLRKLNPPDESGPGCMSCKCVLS
Summary of the method: as §1

[3] = tested on: human lung cancer strain NCI-H441; assay type: cell-based
Summary of the method: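 Signal came from […] measured per well once the reagent was added. Beforehand, cells were cultured at 37°C and 5% carbon dioxide on a compound series serially diluted in dimethyl sulfoxide.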

Compound: CCO[C@@H]1C[C@H]2C(=O)NC3(CC(C)(C)C3)C(=O)N(C)[C@@H](C(CC)CC)C(=O)N(C)[C@H](C(=O)N3CCCC3)CC(=O)N(C)[C@@H](C)C(=O)N[C@@H]([C@@H](C)CC)C(=O)N(C)CC(=O)N(C)[C@H]3C/C=C\CCN(C3=O)[C@@H](Cc3ccc(C(F)(F)F)cc3)C(=O)N(C)CC(=O)N[C@@H](CCc3ccc(Cl)c(Cl)c3)C(=O)N2C1 [PP2178]
NRAS /KRAS [1]: AA (a compound having 20 or more is denoted as AA) | HRAS /KRAS [2]: A (a compound having 10 or more and less than 20 is denoted as A) | IC50 [3]: 35.9 nM

Compound: CCO[C@@H]1C[C@H]2C(=O)NC3(CC(C)(C)C3)C(=O)N(C)[C@@H](C(CC)CC)C(=O)N(C)[C@H](C(=O)N(C)C)CC(=O)N(C)[C@@H](CC3CCC3)C(=O)N[C@@H]([C@@H](C)CC)C(=O)N(C)CC(=O)N(C)[C@H]3C/C=C\CCN(C3=O)[C@@H](Cc3ccc(C(F)(F)F)cc3)C(=O)N(C)CC(=O)N[C@@H](CCc3ccc(Cl)c(Cl)c3)C(=O)N2C1 [PP2180]
NRAS /KRAS [1]: AA (a compound having 20 or more is denoted as AA) | HRAS /KRAS [2]: A (a compound having 10 or more and less than 20 is denoted as A) | IC50 [3]: 27.8 nM

Compound: CCO[C@@H]1C[C@H]2C(=O)NC3(CC(C)(C)C3)C(=O)N(C)[C@@H](C(CC)CC)C(=O)N(C)[C@H](C(=O)N(C)C)CC(=O)N(C)[C@@H](C(C)C)C(=O)N[C@@H]([C@@H](C)CC)C(=O)N(C)CC(=O)N(C)[C@H]3C/C=C\CCN(C3=O)[C@@H](Cc3ccc(C(F)(F)F)cc3)C(=O)N(C)CC(=O)N[C@@H](CCc3ccc(Cl)c(Cl)c3)C(=O)N2C1 [PP2181]
NRAS /KRAS [1]: AA (a compound having 20 or more is denoted as AA) | HRAS /KRAS [2]: A (a compound having 10 or more and less than 20 is denoted as A) | IC50 [3]: 40.3 nM

Compound: CCC[C@H]1C(=O)N[C@@H]([C@@H](C)CC)C(=O)N(C)CC(=O)N(C)[C@H]2C/C=C\CCN(C2=O)[C@@H](Cc2ccc(C)cc2)C(=O)N(C)CC(=O)N[C@@H](CCc2ccc(Cl)c(Cl)c2)C(=O)N2C[C@H](OCC)C[C@H]2C(=O)NC2(CC(C)(C)C2)C(=O)N(C)[C@@H](C(CC)CC)C(=O)N(C)[C@H](C(=O)N(C)C)CC(=O)N1C [PP2184]
NRAS /KRAS [1]: AA (a compound having 20 or more is denoted as AA) | HRAS /KRAS [2]: A (a compound having 10 or more and less than 20 is denoted as A) | IC50 [3]: 29.2 nM

Compound: CCO[C@@H]1C[C@H]2C(=O)NC3(CC(C)(C)C3)C(=O)N(C)[C@@H](C(CC)CC)C(=O)N(C)[C@H](C(=O)N(C)C)CC(=O)N(C)[C@@H](CC(C)C)C(=O)N[C@@H]([C@@H](C)CC)C(=O)N(C)CC(=O)N(C)[C@H]3C/C=C\CCN(C3=O)[C@@H](Cc3ccc(C)cc3)C(=O)N(C)CC(=O)N[C@@H](CCc3ccc(Cl)c(Cl)c3)C(=O)N2C1 [PP2185]
NRAS /KRAS [1]: AA (a compound having 20 or more is denoted as AA) | HRAS /KRAS [2]: A (a compound having 10 or more and less than 20 is denoted as A) | IC50 [3]: 36.1 nM

Compound: CCO[C@@H]1C[C@H]2C(=O)NC3(CC(C)(C)C3)C(=O)N(C)[C@@H](C(CC)CC)C(=O)N(C)[C@H](C(=O)N(C)C)CC(=O)N(C)[C@@H](C)C(=O)N[C@@H]([C@@H](C)CC)C(=O)N(C)CC(=O)N(C)[C@H]3C/C=C\CCN(C3=O)[C@@H](Cc3ccc(C)cc3)C(=O)N(C)CC(=O)N[C@@H](CCc3ccc(Cl)c(Cl)c3)C(=O)N2C1 [PP2186]
NRAS /KRAS [1]: AA (a compound having 20 or more is denoted as AA) | HRAS /KRAS [2]: A (a compound having 10 or more and less than 20 is denoted as A) | IC50 [3]: 33.7 nM

Compound: CCO[C@@H]1C[C@H]2C(=O)NC3(CC(C)(C)C3)C(=O)N(C)[C@@H](C(CC)CC)C(=O)N(C)[C@H](C(=O)N3CCCC3)CC(=O)N(C)[C@@H](C)C(=O)N[C@@H]([C@@H](C)CC)C(=O)N(C)CC(=O)N(C)[C@H]3C/C=C\CCN(C3=O)[C@@H](Cc3ccc(C)cc3)C(=O)N(C)CC(=O)N[C@@H](CCc3ccc(Cl)c(Cl)c3)C(=O)N2C1 [PP2187]
NRAS /KRAS [1]: AA (a compound having 20 or more is denoted as AA) | HRAS /KRAS [2]: A (a compound having 10 or more and less than 20 is denoted as A) | IC50 [3]: 31.4 nM

Compound: CCO[C@@H]1C[C@H]2C(=O)NC3(CC(C)(C)C3)C(=O)N(C)[C@@H](C(CC)CC)C(=O)N(C)[C@H](C(=O)N(C)C)CC(=O)N(C)[C@@H](CC)C(=O)N[C@@H]([C@@H](C)CC)C(=O)N(C)CC(=O)N(C)[C@H]3C/C=C\CCN(C3=O)[C@@H](Cc3ccc(C)cc3)C(=O)N(C)CC(=O)N[C@@H](CCc3ccc(Cl)c(Cl)c3)C(=O)N2C1 [PP2188]
NRAS /KRAS [1]: AA (a compound having 20 or more is denoted as AA) | HRAS /KRAS [2]: A (a compound having 10 or more and less than 20 is denoted as A) | IC50 [3]: 26.7 nM

Compound: CCO[C@@H]1C[C@H]2C(=O)NC3(CCCC3)C(=O)N(C)[C@@H](C3CCCC3)C(=O)N(C)[C@H](C(=O)N(C)C)CC(=O)N(C)[C@@H](CC(C)C)C(=O)N[C@@H]([C@@H](C)CC)C(=O)N(C)CC(=O)N(C)[C@H]3C/C=C\CCN(C3=O)[C@@H](Cc3ccc(C)cc3)C(=O)N(C)CC(=O)N[C@@H](CCc3ccc(C(F)(F)F)c(Cl)c3)C(=O)N2C1 [PP2195]
NRAS /KRAS [1]: A (a compound having 10 or more and less than 20 is denoted as A) | HRAS /KRAS [2]: A (a compound having 10 or more and less than 20 is denoted as A) | IC50 [3]: 7.8 nM

Compound: CCC[C@H]1C(=O)N[C@@H](C2CCCC2)C(=O)N(C)CC(=O)N(C)[C@H]2C/C=C\CCN(C2=O)[C@@H](Cc2ccc(C)cc2)C(=O)N(C)CC(=O)N[C@@H](CCc2ccc(C(F)(F)F)c(Cl)c2)C(=O)N2C[C@H](OCC)C[C@H]2C(=O)NC2(CC(C)(C)C2)C(=O)N(C)[C@@H](CC(C)(C)C)C(=O)N(C)[C@H](C(=O)N(C)C)CC(=O)N1C [PP2196]
NRAS /KRAS [1]: A (a compound having 10 or more and less than 20 is denoted as A) | HRAS /KRAS [2]: B (a compound having 3 or more and less than 10 is denoted as B) | IC50 [3]: 6.6 nM

Compound: CCO[C@@H]1C[C@H]2C(=O)NC3(CCCC3)C(=O)N(C)[C@@H](C3CCCC3)C(=O)N(C)[C@H](C(=O)N(C)C)CC(=O)N(C)[C@@H](CC(C)C)C(=O)N[C@@H]([C@@H](C)CC)C(=O)N(C)CC(=O)N(C)[C@H]3C/C=C\CCN(C3=O)[C@@H](Cc3ccc(C)cc3)C(=O)N(C)CC(=O)N[C@@H](CCc3ccc(C(F)(F)F)c(OC)c3)C(=O)N2C1 [PP2197]
NRAS /KRAS [1]: A (a compound having 10 or more and less than 20 is denoted as A) | HRAS /KRAS [2]: B (a compound having 3 or more and less than 10 is denoted as B) | IC50 [3]: 4.6 nM

Second part, led by results:

IC50 [3]: 13.8 nM
Compound: CCC[C@H]1C(=O)N[C@@H](C2CCCC2)C(=O)N(C)CC(=O)N(C)[C@H]2C/C=C\CCN(C2=O)[C@@H](Cc2ccc(C)cc2)C(=O)N(C)CC(=O)N[C@@H](CCc2ccc(C(F)(F)F)c(Cl)c2)C(=O)N2C[C@H](OCC)C[C@H]2C(=O)NC2(CC(C)(C)C2)C(=O)N(C)[C@@H](C2CCCC2)C(=O)N(C)[C@H](C(=O)N(C)C)CC(=O)N1C [PP2198]
NRAS /KRAS [1]: A (a compound having 10 or more and less than 20 is denoted as A) | HRAS /KRAS [2]: A (a compound having 10 or more and less than 20 is denoted as A)

IC50 [3]: 25.8 nM
Compound: CCC[C@H]1C(=O)N[C@@H](C(CC)CC)C(=O)N(C)CC(=O)N(C)[C@H]2C/C=C\CCN(C2=O)[C@@H](Cc2ccc(C)cc2)C(=O)N(C)CC(=O)N[C@@H](CCc2ccc(C(F)(F)F)c(Cl)c2)C(=O)N2C[C@H](OCC)C[C@H]2C(=O)NC2(CC(C)(C)C2)C(=O)N(C)[C@@H](CC(C)(C)C)C(=O)N(C)[C@H](C(=O)N(C)C)CC(=O)N1C [PP2207]
NRAS /KRAS [1]: A (a compound having 10 or more and less than 20 is denoted as A) | HRAS /KRAS [2]: A (a compound having 10 or more and less than 20 is denoted as A)

IC50 [3]: 17.8 nM
Compound: CCC[C@@H]1C[C@H]2C(=O)NC3(CC(C)(C)C3)C(=O)N(C)[C@@H](C3CCCC3)C(=O)N(C)[C@H](C(=O)N(C)C)CC(=O)N(C)[C@@H](CC)C(=O)N[C@@H]([C@@H](C)CC)C(=O)N(C)CC(=O)N(C)[C@H]3C/C=C\CCN(C3=O)[C@@H](Cc3ccc(C)cc3)C(=O)N(C)CC(=O)N[C@@H](CCc3cc(F)c(C(F)(F)F)c(F)c3)C(=O)N2C1 [PP2208]
NRAS /KRAS [1]: A (a compound having 10 or more and less than 20 is denoted as A) | HRAS /KRAS [2]: A (a compound having 10 or more and less than 20 is denoted as A)

IC50 [3]: 37 nM
Compound: CCC[C@H]1C(=O)N[C@@H](C(CC)CC)C(=O)N(C)CC(=O)N(C)[C@H]2C/C=C\CCN(C2=O)[C@@H](Cc2ccc(C)cc2)C(=O)N(C)CC(=O)N[C@@H](CCc2ccc(C(F)(F)F)c(Cl)c2)C(=O)N2C[C@H](OCC)C[C@H]2C(=O)NC2(CC(C)(C)C2)C(=O)N(C)[C@@H](C2CCCC2)C(=O)N(C)[C@H](C(=O)N(C)C)CC(=O)N1C [PP2209]
NRAS /KRAS [1]: A (a compound having 10 or more and less than 20 is denoted as A) | HRAS /KRAS [2]: A (a compound having 10 or more and less than 20 is denoted as A)

IC50 [3]: 23.5 nM
Compound: CCC[C@H]1C(=O)N[C@@H]([C@@H](C)CC)C(=O)N(C)CC(=O)N(C)[C@H]2C/C=C\CCN(C2=O)[C@@H](Cc2ccc(C)cc2)C(=O)N(C)CC(=O)N[C@@H](CCc2ccc(C(F)(F)F)c(Cl)c2)C(=O)N2C[C@H](CC)C[C@H]2C(=O)NC2(CC(C)(C)C2)C(=O)N(C)[C@@H](C2CCCC2)C(=O)N(C)[C@H](C(=O)N(C)C)CC(=O)N1C [PP2212]
NRAS /KRAS [1]: A (a compound having 10 or more and less than 20 is denoted as A) | HRAS /KRAS [2]: B (a compound having 3 or more and less than 10 is denoted as B)
